Source: patent US11572399B2, “Long-acting GIP peptide analogues” (University of Copenhagen, priority 2017, dated 2023)
pIC50: −log10 of the molar value. Read-outs that look alike come from different tables or passages of the source.

Columns and labels:
[1] = humans, previously determined; cited from earlier work
human GIP receptor = target: T1, human GIP receptor (Homo sapiens, UniProt P48546); test: cAMP accumulation assay, antagonism of a GIP-mediated cAMP response (50-80% of max); assay type: cell-based
T1 construct: host or cells: COS-7, transient transfection (calcium phosphate), cDNA in pCMV-Script
T1 sequence (P48546 22-466): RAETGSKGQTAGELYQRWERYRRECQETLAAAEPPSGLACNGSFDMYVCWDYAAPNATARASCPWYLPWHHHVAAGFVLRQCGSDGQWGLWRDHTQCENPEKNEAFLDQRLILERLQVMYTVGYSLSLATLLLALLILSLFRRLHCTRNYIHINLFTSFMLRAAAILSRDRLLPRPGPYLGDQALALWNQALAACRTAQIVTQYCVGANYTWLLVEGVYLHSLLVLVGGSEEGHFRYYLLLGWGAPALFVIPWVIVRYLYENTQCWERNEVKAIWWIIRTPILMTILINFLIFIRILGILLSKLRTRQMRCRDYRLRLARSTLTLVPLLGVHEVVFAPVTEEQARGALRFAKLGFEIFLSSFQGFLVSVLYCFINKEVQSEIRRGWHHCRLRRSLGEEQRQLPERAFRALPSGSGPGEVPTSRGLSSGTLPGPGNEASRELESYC
Method: The day after, the cells were washed twice with Hepes buffered saline (HBS) buffer and incubated with HBS and 1 mM 3-isobutyl-1-methylxanthine (IBMX) for 30 min at 37° C. […] The HitHunter™ cAMP XS assay (DiscoveRx) was carried out according to the manufacturer's instructions.

[2] = pigs, previously showed; cited from earlier work

CC[C@H](C)[C@H](NC(=O)[C@H](CO)NC(=O)[C@H](Cc1ccc(O)cc1)NC(=O)[C@H](CC(=O)O)NC(=O)[C@H](CO)NC(=O)[C@@H](NC(=O)[C@H](Cc1ccccc1)NC(=O)[C@@H](NC(=O)CNC(=O)[C@@H](N)CCC(=O)O)[C@@H](C)O)[C@@H](C)CC)C(=O)N[C@@H](C)C(=O)N[C@@H](CCSC)C(=O)N[C@@H](CC(=O)O)C(=O)N[C@@H](CCCCN)C(=O)N[C@H](C(=O)N[C@@H](Cc1c[nH]cn1)C(=O)N[C@@H](CCC(N)=O)C(=O)N[C@@H](CCC(N)=O)C(=O)N[C@@H](CC(=O)O)C(=O)N[C@@H](Cc1ccccc1)C(=O)N[C@H](C(=O)N[C@@H](CC(N)=O)C(=O)N[C@@H](Cc1c[nH]c2ccccc12)C(=O)N[C@@H](CC(C)C)C(=O)N[C@@H](CC(C)C)C(=O)N[C@@H](C)C(=O)N[C@@H](CCC(N)=O)C(=O)N[C@@H](CCCCN)C(N)=O)C(C)C)[C@@H](C)CC [hGIP(3-30)NH2, reference compound]
T1/2 [1]: 7.5 min | pIC50 (human GIP receptor; cAMP antagonism log, given as log IC50 (negative sign), transiently transfected COS-7 cells, Table 1): 7.20 | IC50 (human GIP receptor; cAMP antagonism nM (IC50, antagonistic potency), transiently transfected COS-7 cells, Table 1 and text): 65 nM | cAMP accumulation logIC50 ± SEM (human GIP receptor; given as log IC50 (negative sign), linker analogues, n=2, Table 5): −7.19 ± 0.10 | T1/2 [2]: 7.5 min
